Measurements as given in PubChem BioAssay AID330 (DTP/NCI, 2004).
Where “and” joins values, the source holds several entries; their conditions need not be identical. Identical values can stand only once. Toxic doses and inconclusive results are not listed. Rule for the calls: active = survival T/C of 150% or more; inactive = T/C below 125% in these data.

Test system: P388 leukemia ip, CD2F1 mice, survival T/C
Test: NCI In Vivo Anticancer Drug Screen. Data for tumor model P388 Leukemia (intraperitoneal) in CD2F1 (CDF1) mice
Conditions: endpoint: median survival time, higher = longer survival
Summary of the method: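 Mice carrying the transplanted tumor received test compound or vehicle. Survival was recorded in each group, and the value is the treated-group measurement divided by that of the vehicle-treated control group.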

[1] = dose: 50.0 mg/kg/injection, schedule: Q01DX005 (ip), vehicle: Klucel (hydroxypropylcellulose) (HPC)
[2] = dose: 100.0 mg/kg/injection, schedule: Q01DX005 (ip), vehicle: Klucel (hydroxypropylcellulose) (HPC)
[3] = dose: 200.0 mg/kg/injection, schedule: Q01DX005 (ip), vehicle: Klucel (hydroxypropylcellulose) (HPC)
[4] = dose: 50.0 mg/kg/injection, schedule: Q01DX005 (ip), vehicle: saline with Tween-80
[5] = dose: 100.0 mg/kg/injection, schedule: Q01DX005 (ip), vehicle: saline with Tween-80
[6] = dose: 25.0 mg/kg/injection, schedule: Q04DX002 (ip), vehicle: saline with Tween-80
[7] = dose: 50.0 mg/kg/injection, schedule: Q04DX002 (ip), vehicle: saline with Tween-80
[8] = dose: 60.0 mg/kg/injection, schedule: Q01DX005 (ip), vehicle: saline with Tween-80
[9] = dose: 120.0 mg/kg/injection, schedule: Q01DX005 (ip), vehicle: saline with Tween-80
[10] = dose: 240.0 mg/kg/injection, schedule: Q01DX005 (ip), vehicle: saline with Tween-80

Measured: T/C

CCCCN(CCC#N)C(N)=O
inactive: [1] 100 % of control | [2] 100 % of control | [3] 100 % of control

COC(=O)C(CCc1ccc([N+](=O)[O-])cc1)C(C)=O (centres undefined)
inactive: dose: 60.0 mg/kg/injection, schedule: Q01DX005 (ip), vehicle: saline 102 % of control | dose: 120.0 mg/kg/injection, schedule: Q01DX005 (ip), vehicle: saline 97 % of control | dose: 240.0 mg/kg/injection, schedule: Q01DX005 (ip), vehicle: saline 95 % of control

CSc1c(Cl)cc(Cl)cc1C(=O)O
inactive: dose: 16.5 mg/kg/injection, schedule: Q01DX009 (ip), vehicle: saline with Tween-80 100 % of control and 110 % of control | dose: 25.0 mg/kg/injection, schedule: Q01DX009 (ip), vehicle: saline with Tween-80 105 % of control and 106 % of control | dose: 37.5 mg/kg/injection, schedule: Q01DX009 (ip), vehicle: saline with Tween-80 117 % of control and 97 % of control | dose: 50.0 mg/kg/injection, schedule: Q01DX009 (ip), vehicle: saline + alcohol 112 % of control | dose: 100.0 mg/kg/injection, schedule: Q01DX009 (ip), vehicle: saline + alcohol 110 % of control | dose: 200.0 mg/kg/injection, schedule: Q01DX009 (ip), vehicle: saline + alcohol 112 % of control

Cc1ccc(N/N=c2\c3nc4ccccc4nc2n(-c2ccccc2C)c(=S)n3-c2ccccn2)cc1
inactive: [4] 100 % of control | [5] 96 % of control

NC(=O)c1c(N)ncnc1N
inactive: dose: 12.5 mg/kg/injection, schedule: Q04DX002 (ip), vehicle: saline with Tween-80 102 % of control | [6] 104 % of control | [7] 101 % of control

O=C1OCC/C1=C/OC(=O)c1ccccc1
inactive: [8] 93 % of control | [9] 99 % of control | [10] 106 % of control

CC(=O)C(=O)c1ccc(O)cc1
inactive: dose: 10.0 mg/kg/injection, schedule: Q01DX009 (ip), vehicle: saline with Tween-80 96 % of control | dose: 20.0 mg/kg/injection, schedule: Q01DX009 (ip), vehicle: saline with Tween-80 94 % of control | dose: 40.0 mg/kg/injection, schedule: Q01DX009 (ip), vehicle: saline with Tween-80 99 % of control

O=C1C(Cl)=C(Nc2ccccc2)C(O)N1c1ccccc1 (centres undefined)
inactive: [4] 103 % of control | [5] 96 % of control | dose: 200.0 mg/kg/injection, schedule: Q01DX005 (ip), vehicle: saline with Tween-80 92 % of control

Cc1ccc(C)c2c1C(=O)c1c(C)ccc(C)c1C2=O
inactive: dose: 1.5 mg/kg/injection, schedule: Q01DX005 (ip), vehicle: Klucel (hydroxypropylcellulose) (HPC) 99 % of control | dose: 3.0 mg/kg/injection, schedule: Q01DX005 (ip), vehicle: Klucel (hydroxypropylcellulose) (HPC) 94 % of control | dose: 6.0 mg/kg/injection, schedule: Q01DX005 (ip), vehicle: Klucel (hydroxypropylcellulose) (HPC) 89 % of control | [1] 90 % of control | [2] 87 % of control | [3] 86 % of control

CCCCOC1NC(=O)NC(=O)C1(F)C(=O)OCC (centres undefined)
inactive: [8] 108 % of control | [9] 117 % of control | [10] 121 % of control

COC(=O)C1=C(C(=O)OC)NC2=C(C=N1)CCC2
inactive: [8] 102 % of control | [9] 94 % of control | [10] 91 % of control

CC(O)(CO)C(C)(O)C(C)(O)c1cn(O)c(=N)c(C(=O)OCc2ccccc2)n1 (centres undefined)
inactive: dose: 100.0 mg/kg/injection, schedule: Q04DX003 (ip), vehicle: saline 93 % of control | dose: 200.0 mg/kg/injection, schedule: Q04DX003 (ip), vehicle: saline 102 % of control

CCCCCCCCCCCCCCC[N+]1(CC)CCCC1
inactive: dose: 0.78 mg/kg/injection, schedule: Q01DX009 (ip), vehicle: saline 108 % of control | dose: 1.56 mg/kg/injection, schedule: Q01DX009 (ip), vehicle: saline 114 % of control | dose: 3.12 mg/kg/injection, schedule: Q01DX009 (ip), vehicle: saline 114 % of control

CCNCc1c2c(O)c3c(O)c(C)c4c(c3c1O)C(=O)C(C)(O/C=C/C(OC)C(C)C(OC(C)=O)C(C)C(O)C(C)C(O)C(C)/C=C/C=C(/C)C(=O)N2)O4 (centres undefined)
inactive: dose: 25.0 mg/kg/injection, schedule: Q01DX009 (ip), vehicle: other 89 % of control | dose: 50.0 mg/kg/injection, schedule: Q01DX009 (ip), vehicle: other 89 % of control | dose: 100.0 mg/kg/injection, schedule: Q01DX009 (ip), vehicle: other 89 % of control | dose: 200.0 mg/kg/injection, schedule: Q01DX009 (ip), vehicle: other 89 % of control | dose: 400.0 mg/kg/injection, schedule: Q01DX009 (ip), vehicle: other 90 % of control

Cc1c2cnccc2c(C)c2c1c1ccccc1n2CCCCCCCCCCn1c2ccccc2c2c(C)c3cnccc3c(C)c21
inactive: [6] 98 % of control | [7] 92 % of control | dose: 100.0 mg/kg/injection, schedule: Q04DX002 (ip), vehicle: saline with Tween-80 89 % of control

[NH-]C(CC(N)=O)C(=O)O.[NH-]C(CC(N)=O)C(=O)O.[Pd+2] (centres undefined)
inactive: dose: 6.25 mg/kg/injection, schedule: Q04DX003 (ip), vehicle: saline with Tween-80 92 % of control | dose: 12.5 mg/kg/injection, schedule: Q04DX003 (ip), vehicle: saline with Tween-80 96 % of control | dose: 25.0 mg/kg/injection, schedule: Q04DX003 (ip), vehicle: saline with Tween-80 100 % of control | dose: 50.0 mg/kg/injection, schedule: Q04DX003 (ip), vehicle: saline with Tween-80 98 % of control | dose: 100.0 mg/kg/injection, schedule: Q04DX003 (ip), vehicle: saline with Tween-80 107 % of control | dose: 200.0 mg/kg/injection, schedule: Q04DX003 (ip), vehicle: saline with Tween-80 100 % of control

CCO[C@H]1c2cc3c(cc2[C@@H](c2cc(OC)c(OC)c(OC)c2)[C@H]2C(=O)OC[C@@H]21)OCO3
inactive: [1] 96 % of control | [2] 112 % of control

O=C(O)CC(OC(=O)CP(=O)(O)O)C(=O)O (centres undefined)
inactive: dose: 100.0 mg/kg/injection, schedule: Q04DX002 (ip), vehicle: saline 105 % of control | dose: 200.0 mg/kg/injection, schedule: Q04DX002 (ip), vehicle: saline 93 % of control | dose: 400.0 mg/kg/injection, schedule: Q04DX002 (ip), vehicle: saline 102 % of control

COc1cc2cc[n+](C)c(Cc3ccc(Oc4cc(Cc5c6cc(OC)c(OC)cc6cc[n+]5C)ccc4OC)cc3)c2cc1OC
inactive: dose: 2.5 mg/kg/injection, schedule: Q01DX009 (ip), vehicle: saline 98 % of control | dose: 5.0 mg/kg/injection, schedule: Q01DX009 (ip), vehicle: saline 99 % of control | dose: 10.0 mg/kg/injection, schedule: Q01DX009 (ip), vehicle: saline 88 % of control

CCN=P1(N(C(C)C)C(C)C)N(CC)N=NN1C(C)(C)C (centres undefined)
inactive: dose: 1.56 mg/kg/injection, schedule: Q01DX005 (ip), vehicle: Klucel (hydroxypropylcellulose) (HPC) 102 % of control | dose: 3.12 mg/kg/injection, schedule: Q01DX005 (ip), vehicle: Klucel (hydroxypropylcellulose) (HPC) 104 % of control | dose: 6.25 mg/kg/injection, schedule: Q01DX005 (ip), vehicle: Klucel (hydroxypropylcellulose) (HPC) 100 % of control | dose: 12.5 mg/kg/injection, schedule: Q01DX005 (ip), vehicle: Klucel (hydroxypropylcellulose) (HPC) 104 % of control | [1] 111 % of control

CC1CN(/N=C/c2ccc([N+](=O)[O-])o2)C(=O)O1 (centres undefined)
inactive: dose: 6.25 mg/kg/injection, schedule: Q01DX009 (ip), vehicle: Klucel (hydroxypropylcellulose) (HPC) 108 % of control | dose: 12.5 mg/kg/injection, schedule: Q01DX009 (ip), vehicle: Klucel (hydroxypropylcellulose) (HPC) 106 % of control | dose: 25.0 mg/kg/injection, schedule: Q01DX009 (ip), vehicle: Klucel (hydroxypropylcellulose) (HPC) 103 % of control | dose: 50.0 mg/kg/injection, schedule: Q01DX009 (ip), vehicle: Klucel (hydroxypropylcellulose) (HPC) 103 % of control
